Data as given in article PMC12247293 (Journal of Translational Medicine, 2025).

Target: STAT3 (Homo sapiens, UniProt P40763)
Experiment: SPR
Type: binding

Chain of STAT3 (P40763 2-770): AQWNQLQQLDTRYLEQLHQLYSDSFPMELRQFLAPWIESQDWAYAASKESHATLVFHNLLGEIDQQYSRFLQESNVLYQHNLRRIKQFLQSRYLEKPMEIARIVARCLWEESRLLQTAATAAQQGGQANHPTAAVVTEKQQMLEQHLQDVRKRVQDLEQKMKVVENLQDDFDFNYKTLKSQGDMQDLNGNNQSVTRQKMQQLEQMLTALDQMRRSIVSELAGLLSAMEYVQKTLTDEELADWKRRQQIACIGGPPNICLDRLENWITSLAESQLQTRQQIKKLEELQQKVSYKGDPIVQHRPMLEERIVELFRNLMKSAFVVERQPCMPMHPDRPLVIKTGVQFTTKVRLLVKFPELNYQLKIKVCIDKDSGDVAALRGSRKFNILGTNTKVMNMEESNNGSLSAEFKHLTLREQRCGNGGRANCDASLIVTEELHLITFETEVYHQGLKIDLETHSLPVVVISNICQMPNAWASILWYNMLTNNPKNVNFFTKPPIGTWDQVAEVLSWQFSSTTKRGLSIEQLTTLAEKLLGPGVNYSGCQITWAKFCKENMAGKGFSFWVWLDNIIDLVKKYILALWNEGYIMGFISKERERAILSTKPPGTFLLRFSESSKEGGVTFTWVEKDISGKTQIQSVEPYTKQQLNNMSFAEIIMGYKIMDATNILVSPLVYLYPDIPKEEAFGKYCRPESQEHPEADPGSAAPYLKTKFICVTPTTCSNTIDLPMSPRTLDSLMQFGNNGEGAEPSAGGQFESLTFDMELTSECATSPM

Fc1ccc(-n2cc(CCCCN3CCC4(CC3)OCc3ccccc34)c3ccccc32)cc1 [Siramesine]
Kd: 871 µM
